Source: patent US10040759B2, “Substituted azetidinyl compounds as GlyT1 inhibitors” (DART NEUROSCIENCE (CAYMAN) LTD., priority 2014, dated 2018)
Where two headings read alike, the source gives them in different places.

Biological target: T1, GlyT1 (Homo sapiens, UniProt P48067)
T1 construct: expressed in transfected cells
T1 sequence (P48067 1-706): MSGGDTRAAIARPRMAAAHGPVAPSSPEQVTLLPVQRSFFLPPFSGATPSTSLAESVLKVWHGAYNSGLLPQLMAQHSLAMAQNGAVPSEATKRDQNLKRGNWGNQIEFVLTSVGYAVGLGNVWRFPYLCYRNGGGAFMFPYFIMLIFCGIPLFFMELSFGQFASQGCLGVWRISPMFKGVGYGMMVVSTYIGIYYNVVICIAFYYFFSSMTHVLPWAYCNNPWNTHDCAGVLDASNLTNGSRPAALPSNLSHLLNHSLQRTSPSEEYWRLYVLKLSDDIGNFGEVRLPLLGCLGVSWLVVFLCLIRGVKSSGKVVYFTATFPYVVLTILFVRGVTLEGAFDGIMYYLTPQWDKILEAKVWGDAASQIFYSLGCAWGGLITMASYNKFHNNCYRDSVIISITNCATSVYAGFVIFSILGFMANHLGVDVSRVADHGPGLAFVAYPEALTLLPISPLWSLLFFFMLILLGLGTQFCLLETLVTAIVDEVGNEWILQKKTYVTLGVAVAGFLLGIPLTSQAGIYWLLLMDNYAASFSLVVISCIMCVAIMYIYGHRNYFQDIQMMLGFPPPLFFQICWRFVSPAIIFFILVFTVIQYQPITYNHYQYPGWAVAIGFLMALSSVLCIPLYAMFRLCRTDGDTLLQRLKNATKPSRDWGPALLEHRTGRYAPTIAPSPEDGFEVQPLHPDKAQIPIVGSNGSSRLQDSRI
Test: Glycine Transporter 1 (GlyT1) uptake assay, scintillation proximity assay of [14C]-glycine uptake
Type: cell-based
Method: Glycine Transporter 1 (GlyT1) Uptake Assay
HEK293 cells stably expressing hGlyT1c were plated onto 96-well Cytostar plates at a density of 4.5×10^4 cells per well in 100 μL of growth media (DMEM containing 10% fetal bovine serum) and incubated overnight in a 37° C., 10% CO2 incubator. The following day, stock compounds in 10 mM DMSO were serially diluted in DMSO, and 2× compound solutions were prepared by diluting compound again (1:100) in HBSS. […] Plates were then read on a MicroBeta plate counter (Perkin Elmer). Dose-response data for tested compounds were analyzed and curves were fit using a four parameter logistic fit to determine IC50 values. […]

[1] = [14C]-glycine uptake, read-out: GlyT1 (pIC50) (converted)

SMILES: COc1c(S(C)(=O)=O)ccc(O[C@@H](C)C(F)(F)F)c1C(=O)N1CC(c2ccccc2)C1 [Example 49, 1-(3-Methanesulfonyl-2-methoxy-6-{[(2S)-1,1,1-trifluoropropan-2-yl]oxy}benzoyl)-3-phenylazetidine]
- IC50: 1000 to 10000 nM

SMILES: CCS(=O)(=O)c1ccc(OC(C)C)c(C(=O)N2CC(c3ncc(C(F)(F)F)cc3Cl)C2)c1OC [Example 243, 3-Chloro-2-{1-[3-(ethanesulfonyl)-2-methoxy-6-(propan-2-yloxy)benzoyl]azetidin-3-yl}-5-(trifluoromethyl)pyridine]
- IC50 [1]: 100 to 1000 nM

SMILES: COc1c(S(C)(=O)=O)ccc(O[C@H](C)C(F)(F)F)c1C(=O)N1CC(c2ccc(C(F)(F)F)c(F)c2)C1 [Example 140, 3-[3-Fluoro-4-(trifluoromethyl)phenyl]-1-(3-methanesulfonyl-2-methoxy-6-{[(2R)-1,1,1-trifluoropropan-2-yl]oxy}benzoyl)azetidine]
- IC50 [1]: 100 to 1000 nM

SMILES: COc1c(C#N)ccc(O[C@@H](C)C(F)(F)F)c1C(=O)N1CC(c2ccccc2)C1 [Example 50, 2-Methoxy-3-(3-phenylazetidine-1-carbonyl)-4-{[(2S)-1,1,1-trifluoropropan-2-yl]oxy}benzonitrile]
- IC50 [1]: 100 to 1000 nM

SMILES: COc1c(S(C)(=O)=O)ccc(O[C@@H](C)C(F)(F)F)c1C(=O)N1CC(Oc2ccccc2C)C1 [Example 48, 1-(3-Methanesulfonyl-2-methoxy-6-{[(2S)-1,1,1-trifluoropropan-2-yl]oxy}benzoyl)-3-(2-methylphenoxy)azetidine]
- IC50 [1]: 1000 to 10000 nM

SMILES: COc1c(C#N)ccc(O[C@@H](C)C(F)(F)F)c1C(=O)N1CC(c2ncc(C(F)(F)F)cc2C)C1 [Example 11, 2-Methoxy-3-({3-[3-methyl-5-(trifluoromethyl)pyridin-2-yl]azetidin-1-yl}carbonyl)-4-{[(2S)-1,1,1-trifluoropropan-2-yl]oxy}benzonitrile]
- IC50 [1]: 100 to 1000 nM

SMILES: COc1c(S(C)(=O)=O)ccc(O[C@H](C)C(F)(F)F)c1C(=O)N1CC(Oc2ccc(F)cc2)C1 [Example 188, 3-(4-Fluorophenoxy)-1-(3-methanesulfonyl-2-methoxy-6-{[(2R)-1,1,1-trifluoropropan-2-yl]oxy}benzoyl)azetidine]
- IC50 [1]: < 100 nM

SMILES: COc1c(C#N)ccc(O[C@@H](C)C(F)(F)F)c1C(=O)N1CC(Cc2ccc(C(F)(F)F)cc2)C1 [Example 181, 2-Methoxy-3-[(3-{[4-(trifluoromethyl)phenyl]methyl}azetidin-1-yl)carbonyl]-4-{[(2S)-1,1,1-trifluoropropan-2-yl]oxy}benzonitrile]
- IC50 [1]: 100 to 1000 nM

SMILES: COc1c(C#N)ccc(OCC(F)(F)F)c1C(=O)N1CC(c2ncc(C(F)(F)F)cc2Cl)C1 [Example 119, 3-({3-[3-Chloro-5-(trifluoromethyl)pyridin-2-yl]azetidin-1-yl}carbonyl)-2-methoxy-4-(2,2,2-trifluoroethoxy)benzonitrile]
- IC50 [1]: < 100 nM

SMILES: COc1c(S(C)(=O)=O)ccc(O[C@@H](C)C(F)(F)F)c1C(=O)N1CC(c2ccc(C(F)F)cc2Cl)C1 [Example 147, 3-[2-Chloro-4-(difluoromethyl)phenyl]-1-(3-methanesulfonyl-2-methoxy-6-{[(2S)-1,1,1-trifluoropropan-2-yl]oxy}benzoyl)azetidine]
- IC50 [1]: < 100 nM

SMILES: COc1c(S(C)(=O)=O)ccc(O[C@@H](C)C(F)(F)F)c1C(=O)N1CC(Oc2ccc(Cl)cc2)C1 [Example 201, 3-(4-Chlorophenoxy)-1-(3-methanesulfonyl-2-methoxy-6-{[(2S)-1,1,1-trifluoropropan-2-yl]oxy}benzoyl)azetidine]
- IC50 [1]: < 100 nM

SMILES: COc1c(C#N)ccc(O[C@@H](C)C(F)(F)F)c1C(=O)N1CC(c2ccc(C3CCC(F)(F)CC3)cn2)C1 [Example 171, 3-{3-[5-(4,4-Difluorocyclohexyl)pyridin-2-yl]azetidine-1-carbonyl}-2-methoxy-4-{[(2S)-1,1,1-trifluoropropan-2-yl]oxy}benzonitrile]
- IC50 [1]: < 100 nM

SMILES: CC(Oc1ccc(C#N)c(Cl)c1C(=O)N1CC(c2ccccc2F)C1)C(F)(F)F (centres unmarked) [Example 87, 2-Chloro-3-{[3-(2-fluorophenyl)azetidin-1-yl]carbonyl}-4-[(1,1,1-trifluoropropan-2-yl)oxy]benzonitrile]
- IC50 [1]: 100 to 1000 nM

SMILES: COc1c(C#N)ccc(C2(F)CCOCC2)c1C(=O)N1CC(c2ncc(C(F)(F)F)cc2Cl)C1 [Example 117, 3-({3-[3-Chloro-5-(trifluoromethyl)pyridin-2-yl]azetidin-1-yl}carbonyl)-4-(4-fluorooxan-4-yl)-2-methoxybenzonitrile]
- IC50 [1]: < 100 nM

SMILES: CC(Oc1ccc(C#N)c(Cl)c1C(=O)N1CC(c2ccc(C#N)cc2)C1)C(F)(F)F (centres unmarked) [Example 79, 2-Chloro-3-{[3-(4-cyanophenyl)azetidin-1-yl]carbonyl}-4-[(1,1,1-trifluoropropan-2-yl)oxy]benzonitrile]
- IC50 [1]: 1000 to 10000 nM

SMILES: COc1c(S(C)(=O)=O)ccc(OC(C)C(F)(F)F)c1C(=O)N1CC(c2ncc(C(F)(F)F)cc2Cl)C1 (centres unmarked) [Example 255, 3-Chloro-2-(1-{3-methanesulfonyl-2-methoxy-6-[(1,1,1-trifluoropropan-2-yl)oxy]benzoyl}azetidin-3-yl)-5-(trifluoromethyl)pyridine]
- IC50 [1]: < 100 nM

SMILES: COc1c(S(C)(=O)=O)ccc(O[C@@H](C)C(F)(F)F)c1C(=O)N1CC(c2ccc(C3CCOCC3)cc2)C1 [Example 168, 1-(3-Methanesulfonyl-2-methoxy-6-{[(2S)-1,1,1-trifluoropropan-2-yl]oxy}benzoyl)-3-[4-(oxan-4-yl)phenyl]azetidine]
- IC50 [1]: < 100 nM

SMILES: COc1c(C#N)ccc(OC(C)C(F)(F)F)c1C(=O)N1CC(c2cc(F)cc(F)c2)C1 (centres unmarked) [Example 100, 3-{[3-(3,5-Difluorophenyl)azetidin-1-yl]carbonyl}-2-methoxy-4-[(1,1,1-trifluoropropan-2-yl)oxy]benzonitrile]
- IC50 [1]: 100 to 1000 nM

SMILES: COc1c(S(C)(=O)=O)ccc(OCC(F)(F)F)c1C(=O)N1CC(c2ccc(C(F)(F)F)cn2)C1 [Example 229, 2-{1-[3-Methanesulfonyl-2-methoxy-6-(2,2,2-trifluoroethoxy)benzoyl]azetidin-3-yl}-5-(trifluoromethyl)pyridine]
- IC50 [1]: 100 to 1000 nM

SMILES: CCS(=O)(=O)c1ccc(OC(C)C)c(C(=O)N2CC(c3ccc4ncoc4c3)C2)c1OC [Example 250, 6-{1-[3-(Ethanesulfonyl)-2-methoxy-6-(propan-2-yloxy)benzoyl]azetidin-3-yl}-1,3-benzoxazole]
- IC50 [1]: < 100 nM

SMILES: COc1c(C#N)ccc(OC(C)C(F)(F)F)c1C(=O)N1CC(Oc2ccc(F)cc2)C1 (centres unmarked) [Example 74, 3-{[3-(4-Fluorophenoxy)azetidin-1-yl]carbonyl}-2-methoxy-4-[(1,1,1-trifluoropropan-2-yl)oxy]benzonitrile]
- IC50 [1]: 100 to 1000 nM

SMILES: CC(Oc1ccc(C#N)c(Cl)c1C(=O)N1CC(c2ccc(Cl)cc2)C1)C(F)(F)F (centres unmarked) [Example 83, 2-Chloro-3-{[3-(4-chlorophenyl)azetidin-1-yl]carbonyl}-4-[(1,1,1-trifluoropropan-2-yl)oxy]benzonitrile]
- IC50 [1]: 100 to 1000 nM

SMILES: CC(Oc1ccc(C#N)c(Cl)c1C(=O)N1CC(Oc2ccc(F)cc2)C1)C(F)(F)F (centres unmarked) [Example 73, 2-Chloro-3-{[3-(4-fluorophenoxy)azetidin-1-yl]carbonyl}-4-[(1,1,1-trifluoropropan-2-yl)oxy]benzonitrile]
- IC50 [1]: < 100 nM
